In series [1] the target is T1, recombinant rat mGluR2 expressed in CHO cells (Rattus norvegicus, UniProt P31421).
T1 construct: expressed in transfected cells; host or cells: CHO cells, stably transfected with pcD1mGR2 (pcDNA I-amp), G-418 selected; membranes used
Put plainly: [3H]-LY354740 binding on mGlu2 transfected CHO cell membranes (displacement binding assay). Conditions: displacement of 10 nM [3H]-LY354740, membranes of CHO cells expressing rat mGlu2, room temperature, 1 hour; Ki calculated from IC50 with the Cheng and Prusoff equation. From the text:
In Table I below some specific Ki values of preferred compounds of the invention are presented. These values were obtained by indirect measurement of the affinity of the compounds for the recombinant rat mGluR2 expressed in CHO cells using a displacement binding assay with 3H-LY354740.
[^3H]-LY354740 Binding on mGlu2 Transfected CHO Cell Membranes
Transfection and Cell Culture
cDNA encoding the rat mGlu2 receptor protein in pBluescript II was obtained from Prof. S. Nakanishi (Kyoto, Japan), and subcloned into the eukaryotic expression vector pcDNA I-amp from Invitrogen (NV Leek, The Netherlands). This vector construct (pcD1mGR2) was co-transfected with a psvNeo plasmid encoding the gene for neomycin resistance, into CHO cells by a modified calcium phosphate method described by Chen & Okayama (1988). The cells were maintained in Dulbecco's Modified Eagle medium with reduced L-glutamine (2 mM final concentration) and 10% dialysed foetal calf serum from Gibco BRL (Basel, Switzerland). Selection was made in the presence of G-418 (1000 ug/mL final). Clones were identified by reverse transcription of 5 μg total RNA, followed by PCR using mGlu2 receptor specific primers 5′-[…]-3′ and 5′-[…]-3′ in 60 mM Tris HCl (pH 10), 15 mM (NH4)2SO4, 2 mM MgCl2, 25 units/mL Taq Polymerase with 30 cycles annealing at 60° C. for 1 min., extention at 72° C. for 30 s, and 1 min. 95° C. denaturation.
Cells, cultured as above, were harvested and washed three times with cold PBS and frozen at −80° C. The pellet was resuspended in cold 20 mM HEPES-NaOH buffer containing 10 mM EDTA (pH 7.4), and homogenised with a polytron (Kinematica, AG, Littau, Switzerland) for 10 s at 10000 rpm. After centrifugation for 30 min. at 4° C., the pellet was washed once with the same buffer, and once with cold 20 mM HEPES-NaOH buffer containing 0.1 mM EDTA, (pH 7.4). Protein content was measured using the Pierce method (Socochim, Lausanne, Switzerland) using bovine serum albumin as standard.
After thawing, the membranes were resuspended in cold 50 mM Tris-HCl buffer containing 2 mM MgCl2 and 2 mM CaCl2, (pH 7) (binding buffer). The final concentration of the membranes in the assays was 25 μg protein/mL. Inhibition experiments were performed with membranes incubated with 10 nM [^3H]-LY354740 at room temperature, for 1 hour, in presence of various concentrations of the compound to be tested. Following the incubations, membranes were filtered onto Whatmann GF/C glass fiber filters and washed 5 times with cold binding buffer. Non specific binding was measured in the presence of 10 μM DCG IV. After transfer of the filters into plastic vials containing 10 mL of Ultima-gold scintillation fluid (Packard, Züirich, Switzerland), the radioactivity was measured by liquid scintillation in a Tri-Carb 2500 TR counter (Packard, Züirich, Switzerland).
The inhibition curves were fitted with a four parameter logistic equation giving IC50 values, and Hill coefficients and the Ki values were calculated using the Cheng and Prusoff equation (Cheng, Y. and Prusoff, W. H., Biochem. Pharmacol. 1973, 22, 3099-3108). A small Ki value expresses high affinity of the compound towards the receptor.

Each structure is given as a SMILES string.

T1 sequence (P31421 19-872): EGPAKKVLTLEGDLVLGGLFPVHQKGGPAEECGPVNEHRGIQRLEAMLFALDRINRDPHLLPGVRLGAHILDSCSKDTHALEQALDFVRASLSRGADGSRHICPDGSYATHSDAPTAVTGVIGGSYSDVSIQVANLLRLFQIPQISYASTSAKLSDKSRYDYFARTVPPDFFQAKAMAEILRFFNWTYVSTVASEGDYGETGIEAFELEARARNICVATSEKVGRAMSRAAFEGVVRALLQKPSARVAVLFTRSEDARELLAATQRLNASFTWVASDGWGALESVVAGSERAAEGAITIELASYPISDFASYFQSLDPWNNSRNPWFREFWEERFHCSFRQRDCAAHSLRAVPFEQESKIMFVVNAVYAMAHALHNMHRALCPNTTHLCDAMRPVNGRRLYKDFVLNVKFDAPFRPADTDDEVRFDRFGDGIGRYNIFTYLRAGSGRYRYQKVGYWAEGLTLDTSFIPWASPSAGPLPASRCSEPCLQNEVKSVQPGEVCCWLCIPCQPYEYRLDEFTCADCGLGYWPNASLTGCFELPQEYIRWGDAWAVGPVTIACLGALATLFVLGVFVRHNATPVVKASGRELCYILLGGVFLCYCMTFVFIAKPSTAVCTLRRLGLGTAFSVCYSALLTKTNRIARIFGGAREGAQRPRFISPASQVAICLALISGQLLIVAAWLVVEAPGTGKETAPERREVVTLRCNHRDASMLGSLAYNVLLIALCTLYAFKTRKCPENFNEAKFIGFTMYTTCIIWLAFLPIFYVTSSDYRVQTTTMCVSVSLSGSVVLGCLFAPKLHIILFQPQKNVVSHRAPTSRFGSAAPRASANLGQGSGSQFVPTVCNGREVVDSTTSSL

As a reminder, the melting point is the temperature of the solid-liquid transition. For orientation: Ki means the dissociation constant of the complex between target and ligand, obtained from inhibition or displacement. On to `O=C1CC(c2cccc(-n3nncc3CO)c2)=Nc2cc(N3CCOCC3)c(C(F)(F)F)cc2N1` [Example 1, 4-[3-(5-Hydroxymethyl-[1,2,3]triazol-1-yl)-phenyl]-7-morpholin-4-yl-8-trifluoromethyl-1,3-dihydro-benzo[b][1,4]diazepin-2-one], for which the melting point was 200 °C. Further, the Ki in series [1] is 74 nM.
On to `N#Cc1cc(C2=Nc3cc(N4CCOCC4)c(C(F)(F)F)cc3NC(=O)C2)ccn1` [Example 2, 4-(8-Morpholin-4-yl-4-oxo-7-trifluoromethyl-4,5-dihydro-3H-benzo[b][1,4]diazepin-2-yl)-pyridine-2-carbonitrile], for which the melting point was found to be 220 °C. For the same compound, the Ki in series [1] was 20 nM.
The compound `N#Cc1cccc(C2=Nc3ccc(-n4cccc4)cc3NC(=O)C2)c1` [Example 4, 3-(4-oxo-7-Pyrrol-1-yl-4,5-dihydro-3H-benzo[b][1,4]diazepin-2-yl)-benzonitrile] gave a melting point of 219 °C. Also, in series [1], the Ki is 35 nM.
In turn, `N#Cc1cccc(C2=Nc3cc(I)c(-n4cccc4)cc3NC(=O)C2)c1` [Example 9, 3-(8-Iodo-4-oxo-7-pyrrol-1-yl-4,5-dihydro-3H-benzo[b][1,4]diazepin-2-yl)-benzonitrile] displayed a melting point of 215 °C. For the same compound, the inhibition constant Ki in series [1] is 75 nM.
Taken in the same sequence, the figures for `O=C1CC(c2cccc(-n3ccnc3)c2)=Nc2ccc(-n3cccc3)cc2N1` [Example 16, 4-(3-Imidazol-1-yl-phenyl)-8-pyrrol-1-yl-1,3-dihydro-benzo[b][1,4]diazepin-2-one] were 220 °C and 25 nM.
The compound `COc1cc2c(cc1-n1cccc1C(C)(C)C)NC(=O)CC(c1cccc(C#N)c1)=N2` [Example 18, 3-[7-(2-tert.-Butyl-pyrrol-1-yl)-8-methoxy-4-oxo-4,5-dihydro-3H-benzo[b][1,4]diazepin-2-yl]-benzonitrile] yielded a melting point of over 250 °C. Also, the inhibition constant (Ki) in series [1] is 80 nM.
Taken in the same sequence, the figures for `O=C1CC(c2cccc(-c3nc(CO)cs3)c2)=Nc2ccc(-n3cccc3)cc2N1` [Example 20, 4-[3-(4-Hydroxymethyl-thiazol-2-yl)-phenyl]-8-pyrrol-1-yl-1,3-dihydro-benzo[b][1,4]diazepin-2-one] were 238 to 240 °C and 28 nM.
For the compound `O=C1CC(c2cccc(-n3ccnn3)c2)=Nc2ccc(-n3cccc3)cc2N1` [Example 21, 8-Pyrrol-1-yl-4-(3-[1,2,3]triazol-1-yl-phenyl)-1,3-dihydro-benzo[b][1,4]diazepin-2-one], the melting point lay in the range of 206 to 209 °C. Besides, the inhibition constant (Ki) in series [1] is 7.5 nM.
In the case of `O=C1CC(c2cccc(-c3ncco3)c2)=Nc2ccc(-n3cccc3)cc2N1` [Example 22, 4-(3-Oxazol-2-yl-phenyl)-8-pyrrol-1-yl-1,3-dihydro-benzo[b][1,4]diazepin-2-one], the melting point is 251 to 253 °C. The Ki in series [1] is 23 nM.
Turning to `CCOC(=O)c1ncoc1-c1cccc(C2=Nc3ccc(-n4cccc4)cc3NC(=O)C2)c1` [Example 23, 5-[3-(4-oxo-7-Pyrrol-1-yl-4,5-dihydro-3H-benzo[b][1,4]diazepin-2-yl)-phenyl]-oxazole-4-carboxylic Acid Ethyl Ester], the melting point was in the range of 222 to 224 °C. Also, in series [1], the inhibitory constant (Ki) is 29 nM.
In turn, `NC(=O)c1coc(-c2cccc(C3=Nc4ccc(-n5cccc5)cc4NC(=O)C3)c2)n1` [Example 27, 2-[3-(4-oxo-7-Pyrrol-1-yl-4,5-dihydro-3H-benzo[b][1,4]diazepin-2-yl)-phenyl]-oxazole-4-carboxylic Acid Amide] had a melting point of 232 to 234 °C. For the same compound, the inhibitory constant (Ki) in series [1] was 62 nM.
As to `O=C1CC(c2cccc(-c3nc(C(=O)NCCO)co3)c2)=Nc2ccc(-n3cccc3)cc2N1` [Example 34, 2-[3-(4-oxo-7-Pyrrol-1-yl-4,5-dihydro-3H-benzo[b][1,4]diazepin-2-yl)-phenyl]-oxazole-4-carboxylic Acid (2-Hydroxy-ethyl)-amide], the melting point lay in the range of 242 to 244 °C. In addition, the inhibition constant Ki in series [1] was 91 nM.
`Cn1nccc1-c1cccc(C2=Nc3cc(N4CCOCC4)c(C(F)(F)F)cc3NC(=O)C2)c1` [Example 38, 4-[3-(2-Methyl-2H-pyrazol-3-yl)-phenyl]-7-morpholin-4-yl-8-trifluoromethyl-1,3-dihydro-benzo[b][1,4]diazepin-2-one] yielded a melting point of 211 °C. Besides, the Ki in series [1] is 6 nM.
The compound `N#Cc1cc(C2=Nc3cc(N4CCSCC4)c(C(F)(F)F)cc3NC(=O)C2)ccn1` [Example 42, 4-(4-oxo-8-Thiomorpholin-4-yl-7-trifluoromethyl-4,5-dihydro-3H-benzo[b][1,4]diazepin-2-yl)-pyridine-2-carbonitrile] had a melting point of 195 to 199 °C. The inhibitory constant (Ki) in series [1] was 0.9 nM.
As to `CCOc1cc2c(cc1C(F)(F)F)NC(=O)CC(c1cccc(-n3nncc3CO)c1)=N2` [Example 52, 7-Ethoxy-4-[3-(5-hydroxymethyl-[1,2,3]triazol-1-yl)-phenyl]-8-trifluoromethyl-1,3-dihydro-benzo[b][1,4]diazepin-2-one], the melting point is 214 °C. For the same compound, in series [1], the Ki was 83.5 nM.
The corresponding values for `CCOc1cc2c(cc1C(F)(F)F)NC(=O)CC(c1ccnc(C#N)c1)=N2` [Example 53, 4-(8-Ethoxy-4-oxo-7-trifluoromethyl-4,5-dihydro-3H-benzo[b][1,4]diazepin-2-yl)-pyridine-2-carbonitrile] are 233 °C and 8 nM.
Taken in the same sequence, the figures for `Cc1cc2c(cc1C(F)(F)F)NC(=O)CC(c1ccnc(C#N)c1)=N2` [Example 58, 4-(8-Methyl-4-oxo-7-trifluoromethyl-4,5-dihydro-3H-benzo[b][1,4]diazepin-2-yl)-pyridine-2-carbonitrile] were 235 °C and 8.5 nM.
With `Cc1cc(-c2cccc(C3=Nc4cc(N5CCSCC5)c(C#N)cc4NC(=O)C3)c2)on1` [Example 62, 2-[3-(3-Methyl-isoxazol-5-yl)-phenyl]-4-oxo-8-thiomorpholin-4-yl-4,5-dihydro-3H-benzo[b][1,4]diazepine-7-carbonitrile], the melting point is 245 °C. The inhibition constant Ki in series [1] was 32.5 nM.
In the case of `O=C1CC(c2cccc(-n3nncc3CNC3CC3)c2)=Nc2cc(Cl)c(C(F)(F)F)cc2N1` [Example 67, 7-Chloro-4-[3-(5-cyclopropylaminomethyl-[1,2,3]triazol-1-yl)-phenyl]-8-trifluoromethyl-1,3-dihydro-benzo[b][1,4]diazepin-2-one], the melting point came to 206 °C. Further, the inhibitory constant (Ki) in series [1] is 15.5 nM.
Take `Cc1cc2c(cc1C(F)(F)F)NC(=O)CC(c1cccc(-n3nncc3CNC3CC3)c1)=N2` [Example 69, 4-[3-(5-Cyclopropylaminomethyl-[1,2,3]triazol-1-yl)-phenyl]-7-methyl-8-trifluoromethyl-1,3-dihydro-benzo[b][1,4]diazepin-2-one]: the melting point was 181 °C. The Ki in series [1] was 26 nM.
The corresponding values for `Cc1cc2c(cc1C(F)(F)F)NC(=O)CC(c1cccc(-n3cccn3)c1)=N2` [Example 77, 7-Methyl-4-(3-pyrazol-1-yl-phenyl)-8-trifluoromethyl-1,3-dihydro-benzo[b][1,4]diazepin-2-one] are 235 °C and 70 nM.
As for `Cc1cc2c(cc1C(F)(F)F)NC(=O)CC(c1cccc(-c3nc(CO)sc3C)c1)=N2` [Example 84, 4-[3-(2-Hydroxymethyl-5-methyl-thiazol-4-yl)-phenyl]-7-methyl-8-trifluoromethyl-1,3-dihydro-benzo[b][1,4]diazepin-2-one], the melting point is 214 to 217 °C. The Ki in series [1] was 6.5 nM.

The values above are taken from patent US6548495B2, “Dihydro-benzo [B] [1,4] diazepin-2-one derivatives” (Hoffmann-La Roche Inc., priority 2002, dated 2003).
